Measured values published in patent US20220090998A1, “URINE STABILIZATION” (QIAGEN GmbH, priority 2019, published 2022).

Columns and labels:
[1] = system: human Y-chromosomale DYS14 gene, 66 bp amplicon; assay: Real time PCR for Y-chromosomal DYS14 DNA: preservation of male cell-free DNA spiked into female urine
Experimental: (§1) Cell-free DNA from 4-4.8 ml stabilized or unstabilized urine was isolated with the QIAsymphony PAXgene Blood ccfDNA Kit (QIAGEN kit) protocol.
To measure the degradation of cell-free DNA, the relative yield of male cell-free DNA spiked into female samples was analyzed. A real time PCR assay on RotorGene Q (QIAGEN GmbH) was performed with 8 μl of eluate.
Urine from one donor was centrifuged twice to remove all cells from the urine for spike-in into female urine. Urine was collected in larger bottles from two female and two male donors. In case of the two female donors 25 ml centrifuged and therefore cell-free male urine was added to the 200 ml female urine. Approximately 120 ml urine from each donor was filled into BD Vacutainer Urine Collection Cups. Urine was transferred from the cups into two spray dried EDTA tubes, one PAXgene Blood ccfDNA tube and one Streck cell-free DNA BCT tube per donor. One of the EDTA tubes per donor was opened and 1.7 ml of stabilization reagent R1 was added. All tubes were carefully inverted 5 times to mix the urine with the components.
(§2) Cell-free DNA was subsequently purified on the QIAsymphony either directly after collection (t0) or after 1, 3 and 9 days incubation at room temperature. […] Relative yield of Y-chromosomale DYS14 DNA was determined from duplicate samples by real time PCR (no PCR replicates).
Urine from one donor was centrifuged twice to remove all cells from the urine for spike in into female urine. 200 ml urine each from six female donors were collected in large bottles and mixed with 25 ml cell-free male urine directly after collection. Aliquots of 10 ml urine ([…]) were mixed with 1.7 ml reagent. […] All samples were processed in duplicates. Real time PCR for y-chromosomale DYS14 DNA was performed from duplicate samples.
To analyse the effect of pH on cell-free DNA preservation, urine from one donor was centrifuged twice to remove all cells from the urine for spike in into female urine. 200 ml urine each from four female donors were collected in large bottles and mixed with 25 ml cell-free male urine directly after collection. […]

[2] = system: human 18S rDNA gene, 500 bp amplicon; details: t0 to t4 d storage (FIG. 15)
Experimental: Cell-free DNA from 4-4.8 ml stabilized or unstabilized urine was isolated with the QIAsymphony PAXgene Blood ccfDNA Kit (QIAGEN kit) protocol. The QIAsymphony robot mixed urine with proteinase K, binding buffer and magnetic beads. Beads with bound DNA were washed three times and DNA was eluted using 60 μl elution buffer.
To measure the amount of cell-free DNA a real time PCR assay on Abi Prism HT7900 (Life technologies) was performed with 8 μl of eluate. In a 20 μl assay volume using QuantiTect Multiplex PCR Kit reagents (QIAGEN GmbH) two fragments of the human 18S rDNA gene were amplified in a multiplex PCR. Total quantification was achieved by comparison with a standard curve generated with human genomic DNA samples equivalent to 10.000 to 10 copies of human 18s rDNA gene.
Quantification of the 66 bp fragment was used to reflect the total amount of 18S rDNA copies in the urine. Quantification of the 500 bp was used to determine the amount of 18S rDNA copies which derived from apoptotic or mechanically lysed urine cells.
200 ml urine each from four female and two male donors was collected. Aliquots of 10 ml urine were mixed within 15 min after sampling with 1.7 ml PBS or stabilizing reagent. […] The copy numbers of 18s rDNA were determined from duplicate samples in triplicates by real time PCR.

[3] = system: human 18S rDNA gene, 66 bp amplicon; assay: Real time PCR of 18S rDNA 66 bp fragment in cell-free DNA from urine
Experimental: as §1
Total quantification was achieved by comparison with a standard curve generated with human genomic DNA samples equivalent to 10.000 to 10 copies of human 18s rDNA gene.
Quantification of the 500 bp was used to determine the amount of 18S rDNA copies which derived from apoptotic or mechanically lysed urine cells. […] Therefore 500 bp fragments can be considered to be derived from apoptotic, lysed or otherwise destructed urine cells.
All samples were processed in duplicates.
as §2
200 ml urine each from three donors was collected. […] For processing, the samples were centrifuged 15 min at 1900×g. Supernatant was centrifuged again (10 min 1900×g) and the supernatant from the second centrifugation was used for duplicate purification of cell-free DNA on a QIAsymphony system. The cell pellet obtained after the first centrifugation was resolved in 300 μl PBS. 200 μl of the resuspended cell pellet was used for extraction of the genomic DNA using the QIAamp Blood Mini kit. The remaining 100 μl were centrifuged on a glass slide and stained with Papanicolaou (see FIG. 7). […] Genomic DNA yield was measured on a Nanodrop instrument.
Supernatant was centrifuged again (10 min at 1900×g) and the supernatant from the second centrifugation was used for duplicate purification of cell-free DNA on the QIAsymphony.
For EDTA stabilized samples the overall increase in DNA can be deduced from the observed degradation (Dys 14—see FIG. 16) and increase (18s—see FIGS. 14 and 15).

O=C(O)CN(CCN(CC(=O)O)CC(=O)O)CC(=O)O [EDTA, Ethylenediaminetetraacetic acid]
preservation of spiked in male cell-free DNA (DYS14 delta Ct versus t0), words ([1]; Example 2, 2 female donors, 1, 3 and 9 days at RT (FIG. 4)): neither prevents sufficiently cell free DNA degradation
Delta Ct t0-t4 d Dys 14 ([1]; male cell-free urine spiked in female urine, 4 days storage at RT (FIG. 16)): ~2
Reduction (of DYS14 DNA, from Delta Ct) ([1]; t0 to t4 d at RT): 4 fold
decrease in the 500 bp fragment [2]: approx. 32 fold
Delta Ct t0-t4 d 18 s 66 bp ([3]; 4 days storage at RT (FIG. 14)): 2
total DNA in urine over storage (18s rDNA 66 bp copies versus t0), words ([3]; Example 2, BD Vacutainer cup to tubes, 1, 3 and 9 days at RT, 4 donors (FIG. 3)): nor an increase in total DNA comprised in the urine due to DNA release from cells
Overall increase (in DNA resulting from cells) ([3]; deduced from observed degradation (Dys 14) and increase (18s), t0 to t4 d): 4 × 4 = 16 fold
Increase (of 18S 66 bp DNA, from Delta Ct) ([3]; t0 to t4 d at RT): 4 fold
change in the 66 bp fragment ([3]; t0 to t4 d storage (FIG. 14)): small increase
